Assay results reported in patent US20020156010A1 (priority 2000, published 2002).

Columns and labels:
[1] = Fasting leptin and IGF-1 (RIA), octreotide-LAR 24 weeks; assay type: in vivo, human; settings: Week 24-Week 0; High Responders (n = 8)
[2] = test system: early phase of insulin secretion; settings: dose-dependent; cited from earlier work
[3] = children with obesity secondary to cranial insult and insulin hypersecretion; cited from earlier work
[4] = long-term usage, acromegaly or other disorders; cited from earlier work
[5] = target: somatostatin receptor-5 (SSTR5) (Homo sapiens, UniProt P35346); settings: on the β-cell; cited from earlier work
[6] = Safety: blood pressure, glucose (FBG, CBG, HbA1c, IGT), TSH, free T4, lipids, adverse events, octreotide-LAR 24 weeks
Protocol: Inclusion criteria were ages 18-65 years and body mass index (BMI)≧35. The screening evaluation included a complete history and physical examination, and the following studies: Comprehensive Metabolic Panel (CMP), serum glucose 2 hours after an 75 gm oral glucose load, gallbladder ultrasound, and urine pregnancy test (if female). Exclusion criteria included gallstones, hypertension, diabetes mellitus (by ADA criteria), renal or liver disease, or use of chronic medications except for thyroid or estrogen supplementation. Subjects were evaluated every four weeks for 24 weeks. […]
Chemical Analyses: Serum glucose during OGTT was measured by the glucose oxidase method (Kadish, et al., “A new and rapid method for the determination of glucose by measurement of rate of oxygen consumption,” Clin Chem, 14:116-119 (1968), which is hereby incorporated by reference in its entirety). Serum immunoreactive insulin (μU/ml) and C-peptide (ng/ml) levels from each OGTT sample were measured by standard double-antibody radioimmunoassay (RIA) (Linco Research; St Louis, Mo.). Leptin was measured by double antibody RIA, and IGF-1 by competitive binding RIA (Endocrine Sciences; Calabasas Hills, Calif.). […]

Chain of somatostatin receptor-5 (SSTR5) (P35346 whole entry, species assumed): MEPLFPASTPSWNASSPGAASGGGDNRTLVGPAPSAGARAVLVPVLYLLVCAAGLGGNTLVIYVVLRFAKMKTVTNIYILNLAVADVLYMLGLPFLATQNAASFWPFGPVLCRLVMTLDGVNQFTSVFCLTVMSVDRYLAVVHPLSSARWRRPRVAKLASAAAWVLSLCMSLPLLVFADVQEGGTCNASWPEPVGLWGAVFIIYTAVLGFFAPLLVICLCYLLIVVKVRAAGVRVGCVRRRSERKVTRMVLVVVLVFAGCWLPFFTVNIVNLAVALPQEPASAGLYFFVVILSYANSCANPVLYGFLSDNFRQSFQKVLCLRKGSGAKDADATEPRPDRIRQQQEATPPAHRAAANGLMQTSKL

## D-phenylalanyl-L-cysteinyl-L-phenylalanyl-D-tryptophyl-L-lysyl-L-threonyl-N-[2-hydroxy-1(hydroxymethyl)propyl]-L-cysteinamide cyclic (2=>7)-disulfide [octreotide]
[1]
  Δ IGF-1: least suppression
[2]
  Early phase of insulin secretion: inhibit
[3]
  Weight: promotes weight loss
[4]
  Weight and fat mass: minimal positive effect
[5]
  Binding to somatostatin receptor-5 (SSTR5): binds
[6]; at Week 0 and at Week 24
  HR subjects demonstrating IGT: none
[6]; end of the study (32% before treatment)
  Percent of subjects with IGT: 73%
